Source: patent publication US20260364079A1 (Principia Biopharma Inc., priority 2022, published 2026)

Experiments:
[1] = system: collagen-induced arthritis; assay: rat collagen-induced arthritis model; format: in vivo
rat Arthus reaction = assay: rat Arthus reaction; format: in vivo
Fc receptor signaling = assay: in vitro antibody (IgG, IgE) mediated activation of immune cells via Fc receptor signaling; format: cell-based
Pemphigus foliaceus = assay: treatment of dogs with newly diagnosed, naturally occurring Pemphigus foliaceus; format: in vivo
251 kinases = assay: broad kinase enzyme inhibition panel; format: biochemical; conditions: 1 μM; of 251 kinases
[2] = in comparison to first and second generation BTKi; cited from earlier work
other TEC family members = assay: preclinical assays of binding persistence, other TEC family members; conditions: over time

CC(C)(C=C(C#N)C(=O)N1CCC[C@@H](n2nc(-c3ccc(Oc4ccccc4)cc3F)c3c(N)ncnc32)C1)N1CCN(C2COC2)CC1 (mixture of isomers) [rilzabrutinib, (R)-2-[3-[4-amino-3-(2-fluoro-4-phenoxy-phenyl)pyrazolo[3,4-d]pyrimidin-1-yl]piperidine-1-carbonyl]-4-methyl-4-[4-(oxetan-3-yl)piperazin-1-yl]pent-2-enenitrile]
disease reversal [1]: full disease reversal
effect on rat Arthus reaction (rat Arthus reaction): blockade of the rat Arthus reaction
antibody (IgG, IgE) mediated activation of immune cells via Fc receptor signaling (Fc receptor signaling): blocks antibody (IgG, IgE) mediated activation of immune cells via Fc receptor signaling
cases with disease safely controlled without the need for corticosteroid (Pemphigus foliaceus): 4 of 4
number of kinases with >90% inhibition (251 kinases): 6 kinases
cross-reactivity with other molecules [2]: minimal cross-reactivity with other molecules and is low risk for off-target effects
persistence of binding to other TEC family members (other TEC family members): decayed rapidly over time
